Laboratory results: ChEMBL document CHEMBL4765305, “Elephantopinolide A-P, germacrane-type sesquiterpene lactones from Elephantopus scaber induce apoptosis, autophagy and G2/M phase arrest in hepatocellular carcinoma cells” (Eur J Med Chem, 2020)
pIC50: −log10 of the molar value.

How the values were obtained:
Hep 3B2 [1] = experiment: Anti-hepatoma activity against human Hep3B cells assessed as cell growth inhibition by MTT assay; type: functional, cell-based
HepG2 [2] = experiment: Anti-hepatoma activity against human HepG2 cells assessed as cell growth inhibition by MTT assay; type: functional, cell-based
Hep 3B2 [3] = experiment: Induction of autophagy in human Hep3B cells by MDC staining based flow cytometry analysis (Rvb =3.52%); type: functional
HepG2 [4] = experiment: Induction of autophagy in human HepG2 cells by MDC staining based flow cytometry analysis (Rvb =4.46%); type: functional

pIC50 (HepG2 [2]) | SMILES | pIC50 (Hep 3B2 [1]) | Activity (Hep 3B2 [3]) [%] | Activity (HepG2 [4]) [%]
< 4.70 | C[C@@H]1C(=O)O[C@H]2CC3=C[C@@H](C[C@@](C)(O)/C=C/[C@@H]21)OC3=O | < 4.70 | – | –
5.01 | CNC(=O)c1cc(Oc2ccc(NC(=O)Nc3ccc(Cl)c(C(F)(F)F)c3)cc2)ccn1 [SORAFENIB] | 5.28 | 7.29 | 4.1
4.98 | C=C1C(=O)O[C@@H]2/C=C(\C)C[C@H]3C=C(C[C@H](OC(=O)C(C)C)[C@@H]12)C(=O)O3 | 5.06 | – | –
< 4.70 | C=C(C)C(=O)OCC1=C2[C@@H](O)CC3=C[C@@H](C/C(C)=C/[C@H]2OC1=O)OC3=O | < 4.70 | – | –
